Source: US11173173B2, “Methods for treating chemoresistant cancer-initiating cells” (UNIVERSITY OF CONNECTICUT, priority 2015, dated 2021)

Columns and labels:
[1] = system: pS^552-β-catenin; assay: Anti-pS552-β-catenin staining of populations sorted from treated leukemic mice; assay type: in vivo, mouse; conditions: [Low]DXR 0.5 mg/kg daily x5; chemotherapy Nelarabine 217 mg/kg + Dexamethasone 10 mg/kg daily x5
Description: Open arrows indicate a single treatment cycle for typical clinical use of DXR and targeted use strategy (inner box) drawn to relative scales. Triangles represent DXR treatment drawn proportionally to scale. The cumulative targeted dose (distributed over 5 days consecutively) is indicated to relative scale by the inner triangle (white) (see Methods). c, Representative flow cytometry sorting gates indicating HSPC, LSC and (non-LSC) T-ALL blast cell populations. d, Populations from (c) were sorted from leukemic mice treated as indicated in (a,b) with vehicle, chemotherapy, [Low]DXR or chemotherapy+[Low]DXR and stained with Anti-pS^552-β-catenin antibody. Mean fluorescent intensity (MFI) is indicated for each population and treatment. e, Representative images of pS^552-β-catenin staining of LSCs sorted from mice treated as indicated from (d). Scale bars, 30 μm (inset 3 μm).
Chemotherapy consisted of Nelarabine (Selleck) and Dexamethasone (BioVision) administered daily for 5 days consecutively. 43.4 mg/ml Nelarabine was administered intravenously via the tail vain according to the formula: Body Weight (g)×5=volume to inject (μl), which yielded 217 mg/kg. 2.5 mg/ml Dexamethasone was injected intraperitoneally according to the formula: Body Weight (g)×4=volume to inject (μl), yielding 10 mg/kg. […]
It was next determined whether DXR could inhibit pS^552-β-catenin in vivo. […]

[2] = system: blast cells, LSCs and HSPCs sorted from treated leukemic mice; assay: Limiting-dilution transplants into NSG recipients, CRU frequency (ELDA); assay type: in vivo, mouse; conditions: for Engrafted: HSPCs
Method: Leukemic mice were treated with vehicle, chemotherapy, [Low]DXR or chemotherapy+[Low]DXR as described in FIG. 3a. a-c, At 10 days post-treatment, BM was analyzed by flow cytometry to determine frequency of blast cells (a), LSCs (b) and HSPCs (c). Shown are representative plots. d, Average frequency±SD of each population from a-c (n≥6 per group). e, Limiting-dilution assays to determine CRU frequency were performed on blast cells and LSCs sorted from chemotherapy treated leukemic mice and on HSPCs sorted from [Low]DXR treated mice. Engraftment 1% blast cells) was determined in NSG recipients at 10-12 weeks post-transplant.
Limiting-dilution and tumorigenic assays were performed by establishing leukemic mice as described above and treating as indicated at 8 weeks post-induction. For limiting-dilution transplants, mice were treated with chemotherapy or [Low]DXR and, at 10 days post-treatment (based on first treatment), CD45^Hi CD^3+ c-Kit^− blast cells or Lin^− CD^3+ c-Kit^Mid LSCs were sorted from chemotherapy treated mice and Lin^− Sca-1^+ c-Kit^+ HSPCs were sorted from [Low]DXR treated mice. The indicated numbers of these populations were transplanted into 3.25 Gy irradiated NOD. Cg-Prkdc^scid II2rg^tm1WjI/SzJ (NSG) recipient mice. Recipient bone marrow was analyzed by flow cytometry at 10-12 weeks post-transplant and those with ≥1% CD45^Hi blast cells in bone marrow were considered engrafted. CRU frequency was determined using ELDA analysis.

COc1cccc2c1C(=O)c1c(O)c3c(c(O)c1C2=O)C[C@@](O)(C(=O)CO)C[C@@H]3O[C@H]1C[C@H](N)[C@H](O)[C@H](C)O1 [DXR, doxorubicin]
pS552-β-catenin level in LSCs sorted from treated mice [1]: reduced in LSCs isolated from mice recently treated with [Low]DXR, although consistent variability yielded no statistical significance | engraftment behaviour of HSPCs sorted from treated mice ([2]; 10-12 weeks post-transplant): only engrafted at low levels without developing into leukemia | Engrafted ([2]; dose 50, 5 tested): 0 | Engrafted ([2]; dose 150, 6 tested): 1 | Engrafted ([2]; dose 450, 5 tested): 1
